# Where a SMILES comes first, the peptide text is derived from it. [ ]: non-standard residue; d: D form. Hica(2S) = CC(C)C[C@H](O)C(=O)O; NMeL = CN[C@@H](CC(C)C)C(=O)O
# Columns and labels:
# [1] = reported on isolation, Fenical et al. (1998) Tetrahed. Letts. 39:2463-2466; cited from earlier work
# cell proliferation = experiment: conventional [3H]-thymidine incorporation assays; type: cell-based
# From the text: Thus, the present invention also provides a method of treating, preventing, or inhibiting inflammation or an inflammatory disease or disorder in a subject without inhibiting cell proliferation in the subject.
# [2] = tested on: edema caused by phorbol 12-myristate 13-acetate (PMA) in mouse ear; experiment: Inhibition of mouse ear edema (PMA mouse ear model); type: in vivo, mice; details: for inflammation caused by PMA (result in words): irritant phorbol 12-myristate 13-acetate (PMA)
# Description: The efficacy of Exumolide compounds as an anti-inflammatory agent was established by the following assay. Exumolide A was topically applied in acetone to the inside pinnae of the ears of mice in a solution comprising an edema-causing irritant, phorbol 12-myristate 13-acetate (PMA). Specifically, 2 μg/ear of PMA alone or in combination with 50 μg/ear of Exumolide A was applied to the left ears (5 mice per treatment group) and acetone was applied to all right ears. After 3 hours, 20 minutes incubation, the mice were sacrificed, the ears removed and bores taken and weighed. Edema was measured by subtracting the weight of the right ear (acetone control) from the weight of the left ear (treated). Results were recorded as % decrease (inhibition) or % increase (potentiation) in edema relative to the PMA control group edema.
Compound,antibiotic activity [1],inhibition of cell proliferation (cell proliferation),inflammation caused by PMA (result in words) [2],"Edema (mg ± SEM) ([2]; 50 ug/ear topical in acetone with 2 μg/ear PMA, left minus right ear bore weight after 3 hours, 20 minutes) [mg]"
CC(C)C[C@@H]1NC(=O)[C@@H]2CCCN2C(=O)[C@H](CC(C)C)OC(=O)[C@@H]2CCCN2C(=O)[C@H](Cc2ccccc2)NC(=O)[C@H](Cc2ccccc2)NC1=O [Exumolide B] (cyclo(FFP[Hica(2S)]PL)),exhibit antibiotic activity,do not inhibit cell proliferation,prevent or inhibit inflammation,–
CC(C)C[C@@H]1OC(=O)[C@@H]2CCCN2C(=O)[C@H](Cc2ccccc2)NC(=O)[C@H](Cc2ccccc2)NC(=O)[C@H](CC(C)C)N(C)C(=O)[C@@H]2CCCN2C1=O [Exumolide A] (cyclo(FFP[Hica(2S)]P[NMeL])),exhibit antibiotic activity,do not inhibit cell proliferation,prevent or inhibit inflammation,4.3 ± 1.0

# From patent US20030166516A1, “Methods of treating, preventing, or inhibiting inflammation with exumolide compounds” (priority 2001, published 2003)
